Tests used:
[1] = test system: MPTP; test: Ca2+-induced swelling (MPTP) in rat liver mitochondria energised with succinate; format: biochemical; settings: as E1, in the presence of 1 μg/ml oligomycin
Description: Ca^2+-induced swelling (sucrose permeability) in energized mitochondria was assayed at 25° C. in 96 well-plates by measuring changes in absorbance at 540 nm by means of a […]ax 250 spectrophometer controlled by the SOFTmax PRO™ software (Molecular Devices, Switzerland). The incubation medium contained 0.2 M sucrose, 10 mM Tris-Mops, pH 7.4, 1 mM Pi-Tris, 5 μM EGTA. Succinate (5 mM, in the presence of 2 μM rotenone) or 5 mM glutamate/2.5 mM malate, buffered to pH 7.4 with Tris, were used as respiratory substrates. After a short (˜5 min) preincubation in presence or absence of test compounds, mitochondrial swelling was induced by the addition of 20 μl CaCl2 at final concentrations ranging from 40 to 80 μM, depending on respiratory substrates and Ca^2+ sensitivity of the mitochondrial preparation. The final incubation volume was 0.2 ml and the concentration of mitochondria was ˜0.5 mg mitochondrial protein ml^−1. Swelling kinetics was followed for up to 30 min at 25° C. Absorbance readings were taken every 12 sec and the plate was shaken for 3 s between readings to ensure oxygen diffusion during the experiment and to avoid sedimentation of the mitochondria.
The incubation medium contained 0.2 M sucrose, 10 mM Tris-Mops, pH 7.4, 1 mM Pi-Tris, 5 μM EGTA.

[2] = biological target: T1, MPTP (Rattus norvegicus, UniProt Q9Z2L0); test: Ca2+-retention capacity of rat brain mitochondria (Calcium Green-5N); format: biochemical; settings: Ca2+ pulses, rat brain mitochondria
T1 construct: other: n=2; glutamate/malate; other: glutamate/malate; 20 min; mean±SEM; unit not given; other: 300 nM; relieved by 50 μM Ub5
T1 sequence (Q9Z2L0 2-283): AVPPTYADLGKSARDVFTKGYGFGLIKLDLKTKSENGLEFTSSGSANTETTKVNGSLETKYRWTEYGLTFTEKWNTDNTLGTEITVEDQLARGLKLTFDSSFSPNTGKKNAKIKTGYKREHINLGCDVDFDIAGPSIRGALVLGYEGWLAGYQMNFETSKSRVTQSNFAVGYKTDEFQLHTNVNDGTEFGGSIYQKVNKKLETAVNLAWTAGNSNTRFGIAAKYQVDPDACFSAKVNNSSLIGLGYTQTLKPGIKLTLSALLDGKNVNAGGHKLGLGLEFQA
Description: FIG. 4: (A) Effect of Spiro[cyclopentane-1,5′-[5H]dibenzo[a,d]cyclohepten]-2-one,10′,11′-dihydro-3-methylene- and CsA on Ca^2+-retention capacity of rat brain mitochondria. The incubation medium contained 0.2 M sucrose, 10 mM Tris-Mops, pH 7.4, 1 mM Pi-Tris, 5 μM EGTA and 5 mM glutamate/2.5 mM malate, buffered to pH 7.4 with Tris, containing 0.01% (w/v) bovine serum albumin and 1 μM Calcium Green-5N. The final volume was 2.5 ml. Trace (a) control, (b) 1 μM CsA, (c) 1 μM Spiro[cyclopentane-1,5′-[5H]dibenzo[a,d]cyclohepten]-2-one,10′,11′-dihydro-3-methylene- and (d) 1 μM CsA plus 1 μM Spiro[cyclopentane-1,5′-[5H]dibenzo[a,d]cyclohepten]-2-one,10′,11′-dihydro-3-methylene-. Each fluorescence spike corresponds to addition of 5 μM Ca^2+. (B) Comparison of Ca^2+-retention capacity in liver (a) and brain mitochondria (b).
Effect of Spiro[cyclopentane-1,5′-[5H]dibenzo[a,d]cyclohepten]-2-one,10′,11′-dihydro-3-methylene- and CsA on Ca^2+-retention capacity of rat brain mitochondria (FIG. 4). Measurement of extramitochondrial Ca^2+ was determined using a Perkin-Elmer LS-50B fluorimeter controlled by the FL WinLab computer program. […] The final volume was 2.5 ml and the cuvette was thermostated at 25° C. Brain mitochondria were then subjected to a train of 5 μM Ca^2+ additions (˜150 nmol mg protein^−1). Extramitochondrial Ca^2+ was monitored at excitation/emission wavelengths of 505-535. […] The Ca^2+-retention capacity in liver (a) and brain mitochondria (b) were also compared (FIG. 4B).
The effect of Spiro[cyclopentane-1,5′-[5H]dibenzo[a,d]cyclohepten]-2-one,10′,11′-dihydro-3-methylene- at inhibiting MPTP was also investigated in mitochondria isolated from rat forebrain. […] Due to the difficulties mentioned above, the effect of Spiro[cyclopentane-1,5′-[5H]dibenzo[a,d]cyclohepten]-2-one,10′,11′-dihydro-3-methylene- on MPTP in brain mitochondria was more accurately investigated by subjecting mitochondria isolated from rat forebrain to a series of Ca^2+ pulses (5 μM, ˜150 nmol mg protein^−1) and by monitoring extramitochondrial Ca^2+ or using fluororescent probes.

[3] = biological target: T2, VDAC1 (Rattus norvegicus, UniProt Q9Z2L0); test: Affinity labeling of rat mitochondria with the tritiated spiro compound, SDS-PAGE and fluorography; format: binding
T2 construct: from tissue; host or cells: Percoll-purified rat brain and liver mitochondria
T2 sequence (Q9Z2L0 whole entry): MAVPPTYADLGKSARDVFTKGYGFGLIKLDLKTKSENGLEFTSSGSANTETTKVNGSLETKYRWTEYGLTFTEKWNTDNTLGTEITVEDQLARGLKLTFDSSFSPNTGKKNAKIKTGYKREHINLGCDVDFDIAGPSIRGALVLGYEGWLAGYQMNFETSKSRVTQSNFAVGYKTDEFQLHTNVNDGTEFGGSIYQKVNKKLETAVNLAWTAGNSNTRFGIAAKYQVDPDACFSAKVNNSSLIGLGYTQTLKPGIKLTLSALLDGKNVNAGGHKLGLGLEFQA
Description: FIG. 6: Affinity-labeling of isolated rat brain (A) and liver (B) mitochondria. Mitochondrial preparations were incubated in the presence of 10 nM Spiro[cyclopentane-1,5′-[5H]dibenzo[a,d]cyclohepten]-2-one,10′,11′-t2-10′,11′-dihydro-3-methylene- for 15 min at 25° C. in presence or absence of various concentrations of Spiro[cyclopentane-1,5′-[5H]dibenzo[a,d]cyclohepten]-2-one,10′,11′-dihydro-3-methylene-(unlabeled). Samples were submitted to SDS-PAGE (see Experimental Procedures section for details) and fluorography. The fluorograms of the gels are shown. The molecular mass scale (kDa) is shown in the ordinate.
(§1) FIG. 8: (A) Effect of monobromobimano (MBBM) and phenylarsino oxide (PhAO) on VDAC1 labeling by Spiro[cyclopentane-1,5′-[5H]dibenzo[a,d]cyclohepten]-2-one,10′,11′-t2-10′,11′-dihydro-3-methylene- in rat brain mitochondria. Experimental conditions were as in the legend to FIG. 5. (B) Effect of various MPTP inhibitors, atractyloside (ATR) and DIDS on VDAC1 labeling by Spiro[cyclopentane-1,5′-[5H]dibenzo[a,d]cyclohepten]-2-one,10′,11′-t2-10′,11′-dihydro-3-methylene- in rat brain mitochondria. Mitochondria were exposed to DIDS for 5 min before rinsing for removal of the free agent and labeling with Spiro[cyclopentane-1,5′-[5H]dibenzo[a,d]cyclohepten]-2-one,10′,11′-t2-10′,11′-dihydro-3-methylene.
Percoll purified mitochondria (˜30 μg protein per sample) were incubated in the presence of 10 nM Spiro[cyclopentane-1,5′-[5H]dibenzo[a,d]cyclohepten]-2-one,10′,11′-t2-10′,11′-dihydro-3-methylene- in a final volume of 200 μl. After incubation for 15 min at 25° C., samples were centrifuged at 25000×g and the mitochondrial pellet rinsed twice with buffer. Samples were then solubilized in sample buffer containing β-mercaptoethanol (1 h at 37° C.) and subjected to SDS-polyacrylamide gel-electrophoresis (SDS-PAGE) on Tris-glycine Novex pre-cast mini-gels (12% monomer concentration, Invitrogen BV, The Netherlands). After Coomassie Blue staining, gels were processed for fluorography by soaking in Amplify™ (Amersham Biosciences), drying and exposing to X-ray BioMax MS film with BioMax MS intensifying screen (Kodak) at −80° C. for the appropriate time.
as §1, with “Effect” for “FIG. 8: (A) Effect”, “monobromobimano” for “monobromobimano (MBBM)”, “oxide” for “oxide (PhAO)”, “Example 12 (FIG. 8A).” for “the legend to FIG. 5. (B)”, “Spiro[cyclopentane-1,5′-[5H]dibenzo[a,d]cyclohepten]-2-one,10′,11′-t2-10′,11′-dihydro-3-methylene (FIG. 8B).” for “Spiro[cyclopentane-1,5′-[5H]dibenzo[a,d]cyclohepten]-2-one,10′,11′-t2-10′,11′-dihydro-3-methylene.”

[4] = biological target: T3, YVDAC1 (Saccharomyces cerevisiae, UniProt P04840); test: Affinity labeling of yeast mitochondria (Δpor1 and Δpor1 expressing YVDAC1); format: binding; settings: Δpor1 strains with plasmid expressing YVDAC1
T3 construct: expressed in transfected cells; host or cells: Δpor1 yeast strain carrying a YVDAC1 plasmid; isolated mitochondria
T3 sequence (P04840 2-283): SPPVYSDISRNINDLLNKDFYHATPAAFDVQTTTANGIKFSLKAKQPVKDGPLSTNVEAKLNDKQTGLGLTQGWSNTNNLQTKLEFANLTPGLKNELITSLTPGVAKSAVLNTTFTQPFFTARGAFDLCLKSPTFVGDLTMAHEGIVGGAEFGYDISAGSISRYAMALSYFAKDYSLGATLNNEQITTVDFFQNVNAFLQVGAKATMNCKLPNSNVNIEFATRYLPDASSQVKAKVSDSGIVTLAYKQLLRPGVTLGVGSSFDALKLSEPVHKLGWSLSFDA
Source text: (§2) FIG. 9: Spiro[cyclopentane-1,5′-[5H]dibenzo[a,d]cyclohepten]-2-one,10′,11′-t2-10′,11′-dihydro-3-methylene affinity labeling of yeast mitochondria lacking the por1 gene for YVDAC1 (Δpor1) and into Δpor1 yeast mitochondria transfected with YVDAC1 in presence or absence of different concentrations of Spiro[cyclopentane-1,5′-[5H]dibenzo[a,d]cyclohepten]-2-one,10′,11′-dihydro-3-methylene (unlabeled). The fluorograms of gels after SDS-PAGE are shown. Mitochondria isolated from yeast strains were incubated in the presence of 10 nM Spiro[cyclopentane-1,5′-[5H]dibenzo[a,d]cyclohepten]-2-one,10′,11′-t2-10′,11′-dihydro-3-methylene for 15 min at 25° C. Numbers indicate the concentrations (μM) of the various compounds added.
(§3) To further confirm VDAC1 as the protein target of Spiro[cyclopentane-1,5′-[5H]dibenzo[a,d]cyclohepten]-2-one,10′,11′-dihydro-3-methylene-, the labeling of proteins in mitochondria prepared from yeasts by Spiro[cyclopentane-1,5′-[5H]dibenzo[a,d]cyclohepten]-2-one,10′,11′-t2-10′,11′-dihydro-3-methylene- was investigated. […] Increasing concentration of unlabelled Spiro[cyclopentane-1,5′-[5H]dibenzo[a,d]cyclohepten]-2-one,10′,11′-dihydro-3-methylene-inhibited incorporation of the radioactivity (FIG. 9).

[5] = test system: YVDAC1; test: as above; format: binding; settings: Δpor1 strains
Source text: as §2, §3

[6] = biological target: T4, human VDAC1 (Homo sapiens, UniProt P21796); test: Affinity labeling of Δpor1 yeast mitochondria expressing human VDAC1; format: binding; settings: Δpor1 strains with plasmid expressing human VDAC1
T4 construct: expressed in transfected cells; host or cells: Δpor1 yeast strain transformed with a human VDAC1 plasmid; isolated mitochondria
T4 sequence (P21796 whole entry): as the sequence (Q9Z2L0 whole entry) above, with N55T, V129M, S160A, V227I counted along it
Source text: as §3

Nc1ncnc2c1ncn2[C@@H]1O[C@H](COP(=O)(O)OP(=O)(O)O)[C@@H](O)[C@H]1O [ADP]
EC50 [1]: 4.8 µM | Additive effect when combined with the spiro compound (Example 2) [2]: additive | Effect on VDAC1 labeling (incorporation of radioactivity) by the tritiated spiro compound ([3]; rat brain mitochondria, 10 nM radiolabel): did not affect

[3H]C1c2ccccc2C2(CCC(=C)C2=O)c2ccccc2C1[3H] (stereo not shown) [Spiro[cyclopentane-1,5′-[5H]dibenzo[a,d]cyclohepten]-2-one,10′,11′-t2-10′,11′-dihydro-3-methylene-]
Labeling of ~32 kDa protein (VDAC1) ([3]; 10 nM, intact rat brain and liver mitochondria): predominantly labeled | Labeling of 29 kDa band in yeast mitochondria [4]: prominent labeling | Labeling in yeast mitochondria lacking YVDAC1 [5]: virtually no labeling | Labeling in yeast mitochondria expressing human VDAC1 [6]: no dear labeling

From patent US7642283B2, “Mitochrondrial permeability transition pore affinity labels and modulators” (Hoffmann-La Roche Inc., priority 2003, dated 2010)
